Test results published in ChEMBL document CHEMBL1201862, “PubChem BioAssay data set” (2004).
Calls of active or inactive are those of the source.

Experiments:
[1] = target: T1, G-protein coupled receptor 55 (Homo sapiens, UniProt Q9Y2T6); assay: GPR55 agonists via beta-arrestin recruitment, primary screen, imaging, U2OS cells, beta-arrestin-GFP redistribution (AID 1961); format: functional
[2] = target: T1, G-protein coupled receptor 55; assay: GPR55 antagonists blocking LPI-driven arrestin recruitment, primary screen, imaging, U2OS, beta-arrestin-GFP, LPI agonist (AID 2013); format: functional;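 further: antagonist potency measured as reduced agonist-driven arrestin aggregation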
[3] = target: Large T antigen (Simian virus 40, UniProt P03070); format: functional, Betapolyomavirus macacae;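 further: Confirmatory-stage PubChem screen for compounds that inhibit SV40 T antigen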
[4] = target: Induced myeloid leukemia cell differentiation protein Mcl-1 (Homo sapiens, UniProt Q07820); format: functional
[5] = Luminescence Cell-Based Dose Retest to Confirm Inhibitors of Cancer Stem Cells. [Related pubchem assays (depositor defined):AID2717, AID2721]; format: functional; conditions: Homo sapiens
[6] = target: FAD-linked sulfhydryl oxidase ALR (Homo sapiens, UniProt P55789); assay: inhibitors of human ALR sulfhydryl oxidase, dose response, biochemical, H2O2 detection, luminescence, cherry-pick (AID 493248)
[7] = target: T2, High affinity choline transporter 1 (Homo sapiens, UniProt Q9GZV3); assay: CHT inhibitors, dose response, cell-based, 5-point CRC, membrane potential dye (AID 504840); format: functional
T2 sequence (Q9GZV3 whole entry): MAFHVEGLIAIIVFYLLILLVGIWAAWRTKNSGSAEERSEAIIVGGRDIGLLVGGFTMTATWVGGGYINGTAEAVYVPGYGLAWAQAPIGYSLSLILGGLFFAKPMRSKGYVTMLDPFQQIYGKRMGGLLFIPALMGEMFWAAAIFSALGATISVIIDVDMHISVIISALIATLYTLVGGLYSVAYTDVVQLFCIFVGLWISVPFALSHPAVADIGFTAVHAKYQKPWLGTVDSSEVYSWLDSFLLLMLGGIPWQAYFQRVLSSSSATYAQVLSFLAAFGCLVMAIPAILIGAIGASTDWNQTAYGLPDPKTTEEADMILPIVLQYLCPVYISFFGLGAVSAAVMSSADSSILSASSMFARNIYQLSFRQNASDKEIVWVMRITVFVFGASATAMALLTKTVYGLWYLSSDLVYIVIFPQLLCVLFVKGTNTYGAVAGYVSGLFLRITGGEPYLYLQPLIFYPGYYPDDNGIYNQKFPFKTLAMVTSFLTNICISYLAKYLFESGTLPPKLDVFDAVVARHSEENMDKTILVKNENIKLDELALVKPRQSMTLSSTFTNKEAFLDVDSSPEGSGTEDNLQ

[8] = tested on: Vero; assay: Vero cell cytotoxicity, cytotoxicity control for flavivirus capping enzyme inhibitors (AID 588742); format: functional; conditions: Chlorocebus sabaeus
[9] = target: Genome polyprotein (dengue virus type 2, UniProt P29990); assay: Dengue-2 NS5 methyltransferase inhibitors, primary screen, biochemical, confirmation dose response (AID 588689); format: functional
[10] = target: Peroxisome proliferator-activated receptor gamma/Nuclear receptor coactivator 2 (Homo sapiens, UniProt P37231); format: functional;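 further: agonist potency for raising coactivator recruitment to the receptor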
[11] = target: Peroxisome proliferator-activated receptor gamma/Nuclear receptor coactivator 1 (Homo sapiens, UniProt P37231); format: functional;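 further: agonist potency as compounds enhance coactivator SRC-1 recruitment to PPARgamma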
[12] = target: Peroxisome proliferator-activated receptor gamma/Nuclear receptor coactivator 3 (Homo sapiens, UniProt P37231); format: functional;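 further: agonist potency for raising coactivator recruitment to the receptor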
[13] = target: Troponin, cardiac muscle (Homo sapiens, UniProt P19429+P45379+P63316); assay: Fluorescence-based biochemical high throughput dose response assay for activators of the calcium sensitivity of cardiac Regulated Thin Filaments (RTF). [Related pubchem assays (depositor defined):AID493008, AID493018, AID504382, AID504383]; format: protein-complex assay
[14] = target: T3, SUMO-activating enzyme (Homo sapiens, UniProt Q9UBT2); assay: SUMOylation inhibitor hit validation, confirmation, SUMOylation inhibitor project, biochemical, AlphaScreen (AID 2018); format: functional
[15] = target: T3, SUMO-activating enzyme; assay: inhibitors of in vitro SUMOylation cascade, primary screen, biochemical, HTRF, uHTS (AID 2006); format: protein-complex assay
[16] = target: Eukaryotic translation initiation factor 4E (Mus musculus, UniProt P63073); assay: eIF4E–eIF4G protein interaction inhibitors, dose response, biochemical, TR-FRET (AID 855); format: functional;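 further: potency for disrupting eIF4E binding to eIF4GI seen as loss of FRET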
[17] = target: T4, Long-chain-fatty-acid--AMP ligase FadD28 (Mycobacterium tuberculosis, UniProt P9WQ59); assay: Fluorescence polarization aasay to screen for inhibitors that compete for the binding of FadD28 to a bisubstrate Measured in Biochemical System Using Plate Reader - 2147-01_Inhibitor_Dose_CherryPick_Activity.; format: functional, Mycobacterium tuberculosis H37Rv
T4 sequence (P9WQ59 whole entry): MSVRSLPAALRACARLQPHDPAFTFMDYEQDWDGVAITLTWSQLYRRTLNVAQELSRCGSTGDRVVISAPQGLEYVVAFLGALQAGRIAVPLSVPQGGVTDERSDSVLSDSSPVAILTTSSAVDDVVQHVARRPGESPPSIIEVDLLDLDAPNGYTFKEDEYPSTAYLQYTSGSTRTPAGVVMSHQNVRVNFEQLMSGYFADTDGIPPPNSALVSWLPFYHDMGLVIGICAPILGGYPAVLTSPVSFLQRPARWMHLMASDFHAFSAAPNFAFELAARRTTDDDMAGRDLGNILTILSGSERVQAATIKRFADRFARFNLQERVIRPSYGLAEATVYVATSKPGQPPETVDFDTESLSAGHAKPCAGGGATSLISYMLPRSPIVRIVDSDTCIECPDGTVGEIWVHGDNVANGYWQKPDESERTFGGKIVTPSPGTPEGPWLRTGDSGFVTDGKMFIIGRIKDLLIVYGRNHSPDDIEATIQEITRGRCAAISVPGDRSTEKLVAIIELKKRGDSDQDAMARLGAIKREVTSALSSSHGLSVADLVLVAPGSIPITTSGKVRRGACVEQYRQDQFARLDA

[18] = HEp-2 cell cytotoxicity, dose response, cytotoxicity control for RSV inhibitor project, HTS (AID 2410); format: functional; conditions: human respiratory syncytial virus
[19] = target: Bcl-2-related protein A1 (Mus musculus, UniProt Q07440); format: functional;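 further: confirmatory dose–response counterscreen on Bfl-1, used to check hits from a UBC13 polyubiquitin inhibitor campaign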
[20] = target: T5, Ubiquitin-conjugating enzyme E2 N (Homo sapiens, UniProt P61088); format: functional
T5 sequence (P61088 whole entry): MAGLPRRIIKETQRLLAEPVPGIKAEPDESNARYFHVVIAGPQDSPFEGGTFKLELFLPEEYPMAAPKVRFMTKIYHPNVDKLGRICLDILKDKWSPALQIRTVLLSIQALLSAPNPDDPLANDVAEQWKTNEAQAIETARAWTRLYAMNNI

[21] = target: T5, Ubiquitin-conjugating enzyme E2 N; format: functional; remark: listed apart in the source
[22] = target: Cytochrome P450 2D6 (Homo sapiens, UniProt P10635);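 further: CYP2D6 member of a cytochrome P450 panel assay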
Chain of Cytochrome P450 2D6 (P10635 whole entry): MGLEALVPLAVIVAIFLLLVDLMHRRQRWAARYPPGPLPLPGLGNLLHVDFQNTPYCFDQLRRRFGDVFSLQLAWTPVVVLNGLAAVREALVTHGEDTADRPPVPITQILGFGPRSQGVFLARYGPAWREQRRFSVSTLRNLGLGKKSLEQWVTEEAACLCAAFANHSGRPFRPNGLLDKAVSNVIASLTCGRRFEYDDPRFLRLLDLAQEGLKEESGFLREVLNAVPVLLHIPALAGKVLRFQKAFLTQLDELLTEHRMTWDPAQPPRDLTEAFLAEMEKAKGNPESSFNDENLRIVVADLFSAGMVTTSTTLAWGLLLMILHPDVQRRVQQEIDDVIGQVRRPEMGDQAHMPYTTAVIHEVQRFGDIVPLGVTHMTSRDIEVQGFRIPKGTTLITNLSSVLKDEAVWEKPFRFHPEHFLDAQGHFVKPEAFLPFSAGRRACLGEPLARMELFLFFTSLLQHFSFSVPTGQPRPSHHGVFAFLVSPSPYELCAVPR

T3 sequence (Q9UBE0 whole entry): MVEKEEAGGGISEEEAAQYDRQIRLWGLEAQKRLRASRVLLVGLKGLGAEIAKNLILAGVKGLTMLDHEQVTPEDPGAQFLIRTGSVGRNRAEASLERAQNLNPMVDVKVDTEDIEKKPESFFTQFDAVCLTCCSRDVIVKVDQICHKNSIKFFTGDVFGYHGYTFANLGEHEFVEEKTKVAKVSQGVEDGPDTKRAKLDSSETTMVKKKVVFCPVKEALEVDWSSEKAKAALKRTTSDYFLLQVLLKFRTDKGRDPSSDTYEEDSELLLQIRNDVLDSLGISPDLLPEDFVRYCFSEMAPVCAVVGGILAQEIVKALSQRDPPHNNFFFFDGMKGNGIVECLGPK
T3 sequence (Q9UBT2 whole entry): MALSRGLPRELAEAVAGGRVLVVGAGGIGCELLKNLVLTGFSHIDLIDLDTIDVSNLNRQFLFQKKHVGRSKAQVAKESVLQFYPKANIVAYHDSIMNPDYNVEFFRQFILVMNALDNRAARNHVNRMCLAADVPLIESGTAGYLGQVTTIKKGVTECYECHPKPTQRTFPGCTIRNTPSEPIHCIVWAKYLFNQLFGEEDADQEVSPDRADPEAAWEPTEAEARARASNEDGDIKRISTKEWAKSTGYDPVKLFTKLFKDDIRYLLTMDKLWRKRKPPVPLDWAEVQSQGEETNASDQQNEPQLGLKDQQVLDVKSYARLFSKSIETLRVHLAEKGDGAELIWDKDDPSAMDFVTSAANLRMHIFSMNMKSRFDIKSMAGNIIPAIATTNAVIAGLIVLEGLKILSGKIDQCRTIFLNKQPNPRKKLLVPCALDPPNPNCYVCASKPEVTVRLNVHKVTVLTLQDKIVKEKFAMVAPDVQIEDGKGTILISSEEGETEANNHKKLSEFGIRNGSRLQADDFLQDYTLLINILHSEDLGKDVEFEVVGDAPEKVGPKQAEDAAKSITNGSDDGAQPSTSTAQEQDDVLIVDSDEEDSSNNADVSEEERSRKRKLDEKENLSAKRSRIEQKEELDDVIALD
T1 sequence (Q9Y2T6 whole entry): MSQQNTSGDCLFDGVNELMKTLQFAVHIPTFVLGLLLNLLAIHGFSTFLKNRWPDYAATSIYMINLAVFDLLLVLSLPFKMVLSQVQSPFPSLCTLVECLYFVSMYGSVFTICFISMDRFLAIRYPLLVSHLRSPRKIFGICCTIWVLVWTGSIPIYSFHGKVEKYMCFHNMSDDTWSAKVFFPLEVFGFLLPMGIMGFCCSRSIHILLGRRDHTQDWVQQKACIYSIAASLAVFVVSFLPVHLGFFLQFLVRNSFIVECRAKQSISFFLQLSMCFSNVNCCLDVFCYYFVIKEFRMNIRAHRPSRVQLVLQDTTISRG
Chain of Large T antigen (P03070 whole entry): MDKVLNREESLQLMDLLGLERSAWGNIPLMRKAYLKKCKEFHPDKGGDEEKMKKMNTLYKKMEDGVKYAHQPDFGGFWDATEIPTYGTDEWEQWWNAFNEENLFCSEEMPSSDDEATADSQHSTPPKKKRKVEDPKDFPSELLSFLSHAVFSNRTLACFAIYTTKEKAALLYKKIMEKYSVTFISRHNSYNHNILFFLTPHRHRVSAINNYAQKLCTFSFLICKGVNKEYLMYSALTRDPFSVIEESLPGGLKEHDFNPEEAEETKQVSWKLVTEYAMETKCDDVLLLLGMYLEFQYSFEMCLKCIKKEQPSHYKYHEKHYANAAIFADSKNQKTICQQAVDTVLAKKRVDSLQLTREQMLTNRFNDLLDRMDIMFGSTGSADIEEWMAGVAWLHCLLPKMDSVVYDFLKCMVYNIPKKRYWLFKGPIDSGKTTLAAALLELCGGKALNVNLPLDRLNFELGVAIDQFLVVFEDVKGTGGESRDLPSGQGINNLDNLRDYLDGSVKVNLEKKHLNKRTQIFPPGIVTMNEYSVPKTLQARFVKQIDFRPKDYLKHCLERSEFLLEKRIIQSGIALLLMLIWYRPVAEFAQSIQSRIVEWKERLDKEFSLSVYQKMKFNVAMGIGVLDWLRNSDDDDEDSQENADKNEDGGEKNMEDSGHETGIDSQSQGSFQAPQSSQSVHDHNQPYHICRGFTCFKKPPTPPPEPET
Chain of Eukaryotic translation initiation factor 4E (P63073 whole entry): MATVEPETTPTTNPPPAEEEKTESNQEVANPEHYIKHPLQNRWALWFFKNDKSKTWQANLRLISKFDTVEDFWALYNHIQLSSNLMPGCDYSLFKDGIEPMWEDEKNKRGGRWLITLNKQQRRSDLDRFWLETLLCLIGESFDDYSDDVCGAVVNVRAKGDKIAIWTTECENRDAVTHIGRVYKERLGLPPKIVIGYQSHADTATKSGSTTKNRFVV
Chain of FAD-linked sulfhydryl oxidase ALR (P55789 whole entry): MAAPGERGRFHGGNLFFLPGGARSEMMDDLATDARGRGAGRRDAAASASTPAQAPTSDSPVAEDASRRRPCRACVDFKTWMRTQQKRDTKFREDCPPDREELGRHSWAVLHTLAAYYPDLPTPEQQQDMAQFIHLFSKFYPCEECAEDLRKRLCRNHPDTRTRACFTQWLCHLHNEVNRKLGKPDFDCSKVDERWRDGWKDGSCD
Chain of Bcl-2-related protein A1 (Q07440 whole entry): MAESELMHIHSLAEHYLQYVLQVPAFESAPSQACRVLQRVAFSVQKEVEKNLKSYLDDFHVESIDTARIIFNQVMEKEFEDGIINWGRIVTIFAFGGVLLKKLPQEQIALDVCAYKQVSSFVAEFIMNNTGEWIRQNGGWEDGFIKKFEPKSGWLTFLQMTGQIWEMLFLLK
Chain of Genome polyprotein (P29990 2492-3391 limits assumed): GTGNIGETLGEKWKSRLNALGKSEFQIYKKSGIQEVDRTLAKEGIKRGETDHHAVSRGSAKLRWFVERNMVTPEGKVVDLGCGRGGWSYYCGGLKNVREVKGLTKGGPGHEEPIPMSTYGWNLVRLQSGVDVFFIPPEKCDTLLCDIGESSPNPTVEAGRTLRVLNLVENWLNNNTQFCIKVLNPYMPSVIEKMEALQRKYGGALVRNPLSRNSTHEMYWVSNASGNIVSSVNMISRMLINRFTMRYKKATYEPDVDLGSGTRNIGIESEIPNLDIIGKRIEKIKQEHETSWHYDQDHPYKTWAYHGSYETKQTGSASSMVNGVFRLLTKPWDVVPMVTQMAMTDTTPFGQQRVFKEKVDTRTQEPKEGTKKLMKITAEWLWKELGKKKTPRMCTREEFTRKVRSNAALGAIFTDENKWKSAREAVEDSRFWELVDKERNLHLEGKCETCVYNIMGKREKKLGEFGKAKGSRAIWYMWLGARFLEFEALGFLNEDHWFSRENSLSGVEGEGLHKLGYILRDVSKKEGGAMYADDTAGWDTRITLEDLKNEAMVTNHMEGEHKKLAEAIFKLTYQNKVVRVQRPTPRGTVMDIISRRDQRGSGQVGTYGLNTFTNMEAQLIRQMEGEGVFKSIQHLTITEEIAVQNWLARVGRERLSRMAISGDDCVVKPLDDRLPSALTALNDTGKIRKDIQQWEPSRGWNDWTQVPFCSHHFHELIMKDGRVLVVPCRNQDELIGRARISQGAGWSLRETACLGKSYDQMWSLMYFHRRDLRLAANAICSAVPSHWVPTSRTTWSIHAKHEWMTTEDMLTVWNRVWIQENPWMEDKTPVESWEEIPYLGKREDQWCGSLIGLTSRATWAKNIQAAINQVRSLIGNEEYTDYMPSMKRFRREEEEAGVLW
Chain of Induced myeloid leukemia cell differentiation protein Mcl-1 (Q07820 whole entry): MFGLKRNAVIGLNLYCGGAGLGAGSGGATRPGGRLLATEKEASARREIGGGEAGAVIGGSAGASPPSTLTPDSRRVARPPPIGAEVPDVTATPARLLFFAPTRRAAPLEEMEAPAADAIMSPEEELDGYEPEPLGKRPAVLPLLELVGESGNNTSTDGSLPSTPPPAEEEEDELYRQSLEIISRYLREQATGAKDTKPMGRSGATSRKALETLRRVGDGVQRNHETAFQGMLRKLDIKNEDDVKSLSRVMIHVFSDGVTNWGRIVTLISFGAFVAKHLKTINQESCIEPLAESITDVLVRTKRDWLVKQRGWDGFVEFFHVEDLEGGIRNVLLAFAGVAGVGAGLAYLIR

In the case of `Cc1cc(C)c(/C=N/NC(=O)c2nnn(-c3nonc3N)c2CN2CCC(C)CC2)c(C)c1`, the EC50 [1] is reported as 8.18 µM (active).

For `Cc1ccc(N2NC(=O)/C(=C\c3cc4c(cc3[N+](=O)[O-])OCO4)C2=O)cc1C`, the IC50 [2] was 3.3 µM (active), the IC50 [3] was 23 µM (active) and the IC50 [4] was 4.66 µM (active). For the same molecule, the AC50 [5] was 3.65 µM (active), the AC50 [6] was 0.321 µM (active) and the IC50 [7] was 3.98 µM (active). The CC50 [8] was > 40 µM (active) and the IC50 [9] was 27 µM (active).

For `Cn1nc(-c2ccccc2)c(C(=O)Nc2ccc(C(F)(F)F)cc2)c1Cl`, the EC50 [10] was > 79.4 µM (not active), the EC50 [11] was > 79.4 µM (not active) and the EC50 [12] was > 79.4 µM (not active). For the same molecule, the EC50 [13] was > 71.5 µM (inactive).

For `Cc1ccc(NC(=O)CN2C(=O)S/C(=C\c3ccc(-c4cccc(C(=O)O)c4C)o3)C2=O)cc1C`, the IC50 [14] was 6.11 µM (active), the IC50 [15] was 6.48 µM (active) and the IC50 [16] was 27.9 µM (active). The AC50 [17] was 52.8 µM (active).

For `O=C(CCCn1c(=S)[nH]c2ccc(Br)cc2c1=O)N1CCN(c2ccccn2)CC1`, the CC50 [18] was 23.6 µM (active), the IC50 [19] was > 20 µM (inactive) and the IC50 [20] was 19.6 µM (active). The IC50 [21] was > 20 µM (inactive) and the AC50 [22] was 15.8 µM (inconclusive).
